Publication PMC4691232 (Chemistry & Biology, 2015)
Entries after “also recorded” stand apart in the source; their conditions may differ.

Tests used:
WcbL [1] = target: T1, WcbL (Burkholderia pseudomallei, UniProt H7C745); test: biochemical
WcbL [2] = target: T1, WcbL; test: biochemical; assay type: binding

T1 sequence (H7C745 1-346): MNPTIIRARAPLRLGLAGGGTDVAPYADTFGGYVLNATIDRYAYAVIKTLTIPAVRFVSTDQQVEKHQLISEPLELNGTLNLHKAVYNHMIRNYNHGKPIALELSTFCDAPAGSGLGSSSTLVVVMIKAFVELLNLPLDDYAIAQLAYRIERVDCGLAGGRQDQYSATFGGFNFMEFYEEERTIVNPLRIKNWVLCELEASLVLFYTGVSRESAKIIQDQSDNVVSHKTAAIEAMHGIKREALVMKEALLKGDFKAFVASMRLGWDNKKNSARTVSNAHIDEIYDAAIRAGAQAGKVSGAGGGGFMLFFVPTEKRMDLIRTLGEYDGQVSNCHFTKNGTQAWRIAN

| Structure (SMILES) | Ki (WcbL [1]) [µM] | activity against WcbL (structure-activity relationship study, in words) (WcbL [1]) | Kd (WcbL [2]) [µM] | cooperativity coefficient n (DSF binding) (WcbL [2]) |
| --- | --- | --- | --- | --- |
| N#Cc1coc2ccccc2c1=O [3-cyanochromone] | 10 ± 6 |  |  |  |
| N#Cc1coc2c(Cl)cc(Cl)cc2c1=O [6,8-dichloro-3-cyanochromone] |  | significantly weaker activity; also recorded: far less potent inhibitor |  |  |
| N#Cc1coc2ccc(Br)cc2c1=O [6-bromo-3-cyanochromone] | 12 ± 5 | very similar to those of the original compound |  |  |
| Nc1ncnc2c1ncn2[C@@H]1OC(COP(=O)(O)OP(=O)(O)OP(=O)(O)O)[C@@H](O)[C@H]1O (stereo partly shown) [ATP] |  |  | 33 ± 7 | 0.6 ± 0.06 |
| O=P(O)(O)OCC(O)C1OC(O)C(O)C(O)C1O [M7P, D-manno-α,β-D-heptose-7-phosphate] |  |  | 968 ± 37 | did not show any cooperativity |
| O=Cc1coc2ccccc2c1=O [chromone-3-carboxaldehyde] |  | significantly weaker activity; also recorded: much weaker IC50 |  |  |
| O=c1ccoc2ccccc12 [chromone] |  | significantly weaker activity; also recorded: does not inhibit WcbL |  |  |
